From PubChem BioAssay AID1159558 (GlaxoSmithKline (GSK), 2015)
Activity calls are given as the source filed them.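 Rule for the calls: active = IC50 against T. cruzi CYP51 below a set limit; inactive = the rest.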

These compounds were tested against Sterol 14-alpha demethylase (Trypanosoma cruzi (strain CL Brener)) (UniProt Q7Z1V1) (assay: TcCYP51 inhibitors, dose response, mechanism study for T. cruzi antiparasitic project, biochemical, recombinant enzyme (AID 1159558;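 note: enzyme in bacterial membranes with Anopheles gambiae CYP reductase and cytochrome b5 partners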)). Settings: recombinant T. cruzi CYP51, BOMCC fluorescence.
Chain of Sterol 14-alpha demethylase (Trypanosoma cruzi (strain CL Brener)) (Q7Z1V1 whole entry, looked up): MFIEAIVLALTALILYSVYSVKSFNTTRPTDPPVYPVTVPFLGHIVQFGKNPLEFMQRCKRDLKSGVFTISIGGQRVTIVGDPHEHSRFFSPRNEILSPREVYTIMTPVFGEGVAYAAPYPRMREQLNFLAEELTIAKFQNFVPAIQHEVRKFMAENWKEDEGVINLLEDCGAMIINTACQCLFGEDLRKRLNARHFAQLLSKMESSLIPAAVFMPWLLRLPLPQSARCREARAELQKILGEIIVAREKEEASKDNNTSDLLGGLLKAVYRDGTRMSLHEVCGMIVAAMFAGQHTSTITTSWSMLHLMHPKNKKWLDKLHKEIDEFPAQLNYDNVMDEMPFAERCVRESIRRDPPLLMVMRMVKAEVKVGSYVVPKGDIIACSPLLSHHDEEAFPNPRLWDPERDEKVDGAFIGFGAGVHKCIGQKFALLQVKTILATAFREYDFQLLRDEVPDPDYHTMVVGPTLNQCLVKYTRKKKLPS

SMILES | IC50
O=C(CCc1ccc(-c2ccccc2)o1)N1CCN(c2ccc(O)cc2)CC1 | 2.5 µM
COc1cccc(C(=O)[C@H]2C[C@@H]2CN(Cc2ccccn2)Cc2ccccn2)c1 | 32 µM
CCC(=O)Nc1ccccc1C(=O)Nc1ccccn1 | > 100 µM (inactive)
Cc1c(C(=O)NCCCCn2ccnc2)oc2c(C)cccc12 | 0.1 µM
Cc1nn(C)c(Cl)c1CN(Cc1cccnc1)Cc1ccsc1 | 0.063 µM
Cc1cc(N(C)C)nc(Nc2ccccc2C)n1 | > 100 µM (inactive)
CCN(CC)c1nc(N(C)C)nc2c1CN(Cc1ccccc1)CC2 | 10 µM
O=[N+]([O-])c1ccc(-c2nnn(-c3cccnc3)n2)o1 | 4 µM
O=C(CSc1nnc(-c2ccc3c(c2)OCO3)o1)N(Cc1ccco1)CC(F)(F)F | 25 µM
Cc1ccc(C)c(-n2nnnc2Sc2nc([N+](=O)[O-])nn2C)c1 | > 100 µM (inactive)
Nc1nc(-c2ccccn2)nc(-n2nc(-c3cccc(C(F)(F)F)c3)cc2N)n1 | > 100 µM (inactive)
O=C(c1cnn(-c2ccccc2)n1)N1CCCC(n2ccnc2)C1 (centres undefined) | 0.079 µM
C[C@@H](Oc1cc(-n2cnc3ccc(C(O)CO)cc32)sc1C(N)=O)c1ccccc1C(F)(F)F (some centres undefined) | 25 µM
CC(c1ccc2c(c1)CCCC2)N(C)c1ncc2c(N)nc(N)nc2n1 (centres undefined) | 25 µM
O=C1COC(c2ccccc2)(c2ccccc2)CN1C1CCN(Cc2ccc(-n3ccnc3)cc2)CC1 | 0.079 µM
CCN(CC)c1ccc(S(=O)(=O)N(CC)CC)c2nonc12 | 25 µM
O=C1c2cnc(N3CCCC3)nc2CN1c1ccc2c(c1)OCO2 | > 100 µM (inactive)
N#Cc1cc([N+](=O)[O-])ccc1NC1CCCCCC1 | > 100 µM (inactive)
Cc1ccc(C)c(CN2C(=O)NC3(CCc4ccccc43)C2=O)c1 (centres undefined) | 40 µM
Cc1cc2nc(CN(C)Cc3ncccc3C)[nH]c2cc1C | 79 µM
Cc1c(CNC(=O)c2ccc(Cn3cc(Cl)c([N+](=O)[O-])n3)cc2)cnn1C | > 100 µM (inactive)
O=C(Cc1ccccc1)Nc1ccccc1C(=O)Nc1nccs1 | > 100 µM (inactive)
COc1cc(-c2noc(CC#N)n2)ccc1OC(F)F | 100 µM

SMILES | IC50
COc1cc2c(cc1OC)[C@H]1[C@@H](C)c3ccc(OC)c(OC)c3CN1CC2 | 79 µM
CN(Cc1nc2ccccc2s1)C(=O)C=Cc1cc2ccccc2o1 | 0.16 µM
Cc1[nH]c2ccccc2c(=O)c1Cc1c(C)[nH]c2ccccc2c1=O | > 100 µM (inactive)
O=c1cc(NCCCNCc2c[nH]c3ccc(Br)cc23)[nH]c2ccccc12 | > 100 µM (inactive)
CN(C)c1ncc(-c2cncn2CCOc2ccc(Cl)cc2)cn1 | 0.05 µM
CC(CCc1ccccc1)NC(=O)CN(Cc1ccccn1)Cc1ccccn1 (centres undefined) | 63 µM
COc1ccc2ncc(F)c(CCN3CC[C@@H](NC(=O)c4cc5c(s4)CCC5)[C@@H](O)C3)c2n1 | 1.3 µM
CCCCn1nnnc1CSc1nc(C)cc(C)c1C#N | 50 µM
CC(=O)Nc1nc(-c2cc(C)ccc2C)c(C)s1 | > 100 µM (inactive)
CN(Cc1ccccc1)Cc1nnnn1C1CCN(Cc2ccc(-n3ccnc3)cc2)CC1 | 0.05 µM
CCOc1cc(NCCCN2CCN(C)CC2)c2ncccc2c1 | > 100 µM (inactive)
O=C(NCCc1nc(-c2ccc(F)c(F)c2)n[nH]1)C1CCCCC1 | 25 µM
O=C(NCC1CCCCC1)c1cnns1 | > 100 µM (inactive)
Cn1nc(C(=O)N2CCc3ccccc32)c2c1CCS(=O)(=O)C2 | > 100 µM (inactive)
O=C(N[C@H](CO)c1ccccc1)c1ccc(-c2c[nH]c3nccc(C(F)(F)F)c23)s1 | 6.3 µM
CNc1c(C(N)=O)c(-c2ccc3scnc3c2)nn1CC(F)(F)F | > 100 µM (inactive)
Cc1[nH]n2c(=O)c3c(nc2c1-c1ccc(Cl)cc1)CCCC3 | > 100 µM (inactive)
c1cc(-c2ncc(-c3ccn[nH]3)s2)ccn1 | 0.04 µM
COc1ccc([N+](=O)[O-])cc1NC(=O)c1cc(Cl)ccc1O | > 100 µM (inactive)
COc1ccc(C(=O)[C@H]2C[C@@H]2CN(Cc2ccccn2)Cc2ccccn2)cc1 | 40 µM
CNC(=O)Oc1ccc(C(=O)NCc2ccccc2)cc1OC(=O)NC | > 100 µM (inactive)
COCc1cnc2c(c1SCc1c(F)cccc1Cl)c(=O)n(C)c(=O)n2C | 25 µM
CCN(CC)S(=O)(=O)c1ccc(Cn2nc(C(=O)Nc3ccncn3)c3ccccc32)cc1 | 0.16 µM

Next, values leading:

IC50 | SMILES
1 µM | COc1ccc2nccc(NC(=O)C3(OC)CCN(CC(O)c4ccc5c(c4)OCCO5)CC3)c2n1 (centres undefined)
13 µM | Cc1ccccc1NS(=O)(=O)c1ccc2[nH]cc(C(=O)NC3CCCC3)c(=O)c2c1
32 µM | CCOc1ccc(Nc2ccc(S(=O)(=O)N3CCN(C)CC3)cc2[N+](=O)[O-])cc1OCC
0.063 µM | Clc1ccc(OCCN2CCCCC2c2cccnc2)c(Cl)c1 (centres undefined)
> 100 µM (inactive) | COc1ccc(-c2csc(NC(=O)c3ccc([N+](=O)[O-])s3)n2)cc1
0.063 µM | O=C(c1cc2cc(Cl)ccc2[nH]1)N1CCCCC1c1cccnc1 (centres undefined)
> 100 µM (inactive) | OCCCNc1nc(Nc2ccncc2)nc2ccccc12
25 µM | O=C(NCCc1csc(-c2ccc(F)cc2)n1)c1cccs1
> 100 µM (inactive) | CCOc1ccc(CC(=O)N2c3ccccc3CC2C(=O)NC)cc1 (centres undefined)
32 µM | CC(=O)Nc1ccc(Nc2nccc(-c3cnn4ncccc34)n2)cc1C(F)(F)F
> 100 µM (inactive) | Cc1nc2c(-c3nc(-c4ccc(N)cc4)n[nH]3)cccn2c1C
0.063 µM | O=C(c1cccc(Cl)c1Cl)N1CCn2c1nc(-c1ccncc1)cc2=O
10 µM | NC(=O)c1cc(F)ccc1Nc1nc(NC2CCC(O)CC2)ncc1Br (centres undefined)
32 µM | CC1CN(Cc2ccc(C#N)cc2)CCN1c1ccc(NC(=O)c2ccccc2F)cc1 (centres undefined)
1.3 µM | COC(=O)c1ccc(-c2cnc3ccc(NCc4ccccn4)nn23)cc1
63 µM | Cc1ccnc(NS(=O)(=O)c2ccc(NC(=O)c3ccc([N+](=O)[O-])s3)cc2)n1
40 µM | CS(=O)(=O)c1ccc(Nc2nccc(Nc3n[nH]c4ccc(F)cc34)n2)c(F)c1
50 µM | CCOC(=O)c1cn[nH]c1S(=O)(=O)N1CCC1c1ccccc1 (centres undefined)
1.6 µM | COc1ccc(Oc2ccc(C(C)N(C)c3ncc4c(N)nc(N)nc4n3)cc2)cc1 (centres undefined)
> 100 µM (inactive) | COc1cccc(-c2cc(C(F)(F)F)nc(-n3ccc([N+](=O)[O-])n3)n2)c1

IC50 | SMILES
> 100 µM (inactive) | NS(=O)(=O)c1ccc(Nc2ncc3cccc(OC4CCNCC4)c3n2)cc1
25 µM | OC[C@@H](Nc1nccc(-c2c(-c3ccc(F)cc3)ncn2C2CCNCC2)n1)c1ccccc1
> 100 µM (inactive) | N#CN1CC[C@@H](NC(=O)Nc2ccccc2Oc2ccccc2)C1
> 100 µM (inactive) | Cc1cccc(NS(=O)(=O)c2ccc3c(c2)C(=O)c2cc(S(=O)(=O)Nc4cccc(C)c4C)ccc2-3)c1C
> 100 µM (inactive) | Cc1ccc2c(c1)SC(C(=O)Nc1n[nH]c(-c3ccccn3)n1)C2 (centres undefined)
79 µM | NC(=O)c1cc(NC(=O)c2ccccc2COc2ccccc2)ccc1Cl
> 100 µM (inactive) | Cc1ccc(NC(=O)c2ccc(Cl)c(NC(=O)c3ccc([N+](=O)[O-])cc3)c2)cc1
> 100 µM (inactive) | CNC(=O)C1Cc2ccccc2N1C(=O)Cc1ccc(OC)cc1 (centres undefined)
25 µM | CCn1c(NC(=O)Cc2ccc(F)cc2)nc2ccccc21
25 µM | O=C1CN(C(=O)c2cccc(Nc3ncc(-c4ccc5c(c4)OCO5)cn3)c2)CCN1
50 µM | COc1ccc(C2CC(c3ccccc3Cl)=NN2C(=O)CNC(=O)C2CCC2)cc1 (centres undefined)
16 µM | COc1ccc(-c2cc(C)no2)cc1S(=O)(=O)Nc1ccc(C)c(C)c1
25 µM | N#Cc1ccc(C(=O)Nc2cccc(-c3cccc(CN4CCC(O)CC4)c3)c2)cc1
6.3 µM | CN(C)Cc1cccc(Nc2nccc(-c3ccc(NCCN)c(C#N)c3)n2)c1
0.063 µM | O=C(NCC(c1cccnc1)N1CCc2ccccc2C1)C(=O)Nc1cccc(Cl)c1 (centres undefined)
> 100 µM (inactive) | O=c1[nH]c(C=Cc2cccc(OCCOc3ccccc3)c2)nc(O)c1[N+](=O)[O-]
1.3 µM | O=C(NC(CO)c1ccc(F)cc1)c1ccc(-c2c[nH]c3ncccc23)s1 (centres undefined)
> 100 µM (inactive) | COc1ccccc1C(=O)Nc1nnc(-c2ccc3c(c2)OCO3)s1
> 100 µM (inactive) | c1ccc(-c2nc(NCc3ccco3)c3ccccc3n2)nc1
32 µM | NC(=O)c1cc(F)ccc1Nc1nc(NC2CCC(O)CC2)ncc1Cl (centres undefined)

IC50 | SMILES
20 µM | Cc1cccc(Nc2nc(-c3ccccn3)cs2)n1
> 100 µM (inactive) | O=C(NCCc1csc(-c2ccc(F)cc2)n1)c1ccco1
0.063 µM | Cc1ccc2nc(N(Cc3cccnc3)C(=O)CCc3ccccc3)sc2c1
> 100 µM (inactive) | COc1ccc(OC)c(S(=O)(=O)N(Cc2c(F)cccc2F)[C@@H]2CCN(C#N)C2)c1
79 µM | CCc1ccccc1[C@@H](C)NC(=O)c1cnc2c(cnn2CC)c1NC1CCN(C(N)=O)CC1
50 µM | Cc1cccnc1NC(=O)c1cccc(OCc2c(C)noc2C)c1
> 100 µM (inactive) | Cc1cccc(NS(=O)(=O)c2cnc3sc(C)cn3c2=O)c1
> 100 µM (inactive) | CN(C(=O)Nc1ccc2c(c1)CCN(C1CCC1)CC2)c1ccc(C#N)cc1
> 100 µM (inactive) | c1ccc(-c2nc(NC3CCCC3)c3ccccc3n2)nc1
1.3 µM | C[C@@H](Oc1cc(-n2cnc3ccc(O[C@H]4CCNC4)cc32)sc1C(N)=O)c1ccccc1Cl
> 100 µM (inactive) | CCCN1CCN(Cc2ccc(S(=O)(=O)Nc3cccc(C)c3)cc2)CC1
> 100 µM (inactive) | Cc1cc(Nc2cc(C3CC3)[nH]n2)nc(N2CCC[C@H]2C(N)=O)n1
0.025 µM | CNc1cncc(C2CCCN2C(=O)Cc2coc3cc(C)ccc23)n1 (centres undefined)
0.16 µM | CN(Cc1cccnc1)Cc1ccc(N2CCN(C(=O)C3(c4ccc(Cl)cc4)CC3)CC2)nc1
0.13 µM | Cc1nc(N2CCC(C(=O)N3CCC(O)(c4cccnc4)CC3)CC2)nc2ccc(C(C)C)cc12
0.79 µM | COc1cnc2ccc(=O)n(CCN3CCC(NC(=O)Cc4ccc(Cl)c(Cl)c4)CC3)c2c1
40 µM | O=C(Nc1nc(-c2ccccn2)cs1)N1C[C@H]2C[C@@]2(c2ccccc2)C1
> 100 µM (inactive) | CCC(=O)Nc1ccc(-c2nc3ccc(Cl)cc3[nH]2)cc1
